Data reported in patent US9409905B2, “Antibacterial compounds and methods for use” (PTC THERAPEUTICS, INC., priority 2011, dated 2016).
Values after ≈ are worked out from the molar mass of the structure shown.

Legend:
E. coli LZ3111 = test: Antibacterial activity, MIC, quinolone resistant strain (Table 2); assay type: cell-based; details: Escherichia coli, LZ3111, read-out: MIC LZ3111
In short: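 Growth inhibition assessed by serial drug dilution in broth; endpoint was absence of macroscopically visible growth, reported as MIC, μg/mL.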

[1] = test system: Pseudomonas aeruginosa (P. aeruginosa) 27853; test: Antibacterial activity, MIC (Table 5); assay type: cell-based; details: P. aeruginosa 27853, read-out: MIC, 27853
In short: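 Using a microbroth dilution format, the minimum inhibitory concentration was recorded as the lowest tested concentration that stopped visible bacterial growth, expressed in μg/mL.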

K. pneumoniae MXX1232 = test: Antibacterial activity, MIC, resistant strain (Table 4); assay type: cell-based; details: Klebsiella pneumoniae, MXX1232; resistant K. pneumoniae MMX1232, multi-drug resistant clinical isolate; read-out: MIC, MMX1232
In short: (§1)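 Values are minimum inhibitory concentrations in μg/mL from broth microdilution, meaning no macroscopically visible growth at that concentration. Resistant MXX isolates are multi-drug resistant clinical strains.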

A. baumannii MXX2240 = test: as above; assay type: cell-based; details: Acinetobacter baumannii, MXX2240; resistant A. baumannii MMX2240, multi-drug resistant clinical isolate; read-out: MIC, MMX2240
In short: as §1

[2] = test system: Staphylococcus aureus (S. aureus) 29213; test: Antibacterial activity, microbroth dilution MIC (Table 1); assay type: cell-based; details: microbroth dilution, Gram-positive S. aureus 29213, read-out: MIC, 29213
In short: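 Lowest concentration stopping macroscopically visible growth under test conditions, by broth microdilution, defines the MIC (μg/mL).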

[3] = test system: Escherichia coli (E. coli) BAS849; test: as above; assay type: cell-based; details: microbroth dilution, super sensitive Gram-negative E. coli BAS849, read-out: MIC, BAS849
In short: (§2)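 Values are MICs (μg/mL): the smallest drug amount at which macroscopically visible bacterial growth is absent under assay conditions, from a microdilution method in broth.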

E. coli 25922 = test: as above; assay type: cell-based, Escherichia coli; details: Escherichia coli; microbroth dilution; control Gram-negative E. coli 25922 strain; read-out: MIC, 25922
In short: as §2

E. coli ELZ4251 = test: Antibacterial activity, MIC, multi-drug resistant clinical isolate (Table 3); assay type: cell-based; details: Escherichia coli
Description: The antibacterial activity from a microbroth dilution method may be presented as the minimum inhibitory concentration (MIC in μg/mL). The MIC value is the lowest concentration of drug which prevents macroscopically visible growth under test conditions.
Antibacterial activity of test compounds against E. coli ELZ4000 and E. coli ELZ4251 multi-drug resistant clinical isolates is shown in Table 3.

[4] = test system: Klebsiella pneumoniae (K. pneumoniae) 35657; test: Antibacterial activity, MIC (Table 4); assay type: cell-based; details: K. pneumoniae 35657, read-out: MIC, 35657
In short: as §1

[5] = test system: Acinetobacter baumannii (A. baumannii) BAA747; test: Antibacterial activity, MIC (Table 4); assay type: cell-based; details: A. baumannii BAA747, read-out: MIC, BAA747
In short: as §1

| Compound | MIC (E. coli LZ3111) | MIC [1] | MIC (K. pneumoniae MXX1232) | MIC (A. baumannii MXX2240) | MIC [2] | MIC [3] | MIC (E. coli 25922) | MIC (E. coli ELZ4251) | MIC [4] | MIC [5] |
| --- | --- | --- | --- | --- | --- | --- | --- | --- | --- | --- |
| CCCCCCNCc1cc2cc(-c3[nH]c(=O)c(C(=O)O)c(O)c3CC)ccc2n1C [Cpd 335, 5-ethyl-6-(2-((hexylamino)methyl)-1-methyl-1H-indol-5-yl)-4-hydroxy-2-oxo-1,2-dihydropyridine-3-carboxylic acid] | 1 to 3.5 µg/mL (≈ 2.35 to 8.23 µM) | 12.5 to 150 µg/mL (≈ 29.4 to 353 µM) | 12.5 to 150 µg/mL (≈ 29.4 to 353 µM) | 12.5 to 150 µg/mL (≈ 29.4 to 353 µM) | 1 to 3.5 µg/mL (≈ 2.35 to 8.23 µM) | < 1 µg/mL | < 1 µg/mL | 12.5 to 150 µg/mL (≈ 29.4 to 353 µM) | 1 to 3.5 µg/mL (≈ 2.35 to 8.23 µM) | 3.5 to 12.5 µg/mL (≈ 8.23 to 29.4 µM) |
| CCc1c(-c2ccc3c(c2)c(C#N)c(OC)n3C)[nH]c(=O)c(C(=O)O)c1O [Cpd 362, 6-(3-cyano-2-methoxy-1-methyl-1H-indol-5-yl)-5-ethyl-4-hydroxy-2-oxo-1,2-dihydropyridine-3-carboxylic acid] | 12.5 to 150 µg/mL (≈ 34 to 408 µM) | 12.5 to 150 µg/mL (≈ 34 to 408 µM) | 12.5 to 150 µg/mL (≈ 34 to 408 µM) | 12.5 to 150 µg/mL (≈ 34 to 408 µM) | 3.5 to 12.5 µg/mL (≈ 9.53 to 34 µM) | 1 to 3.5 µg/mL (≈ 2.72 to 9.53 µM) | 12.5 to 150 µg/mL (≈ 34 to 408 µM) | 12.5 to 150 µg/mL (≈ 34 to 408 µM) | 12.5 to 150 µg/mL (≈ 34 to 408 µM) | 12.5 to 150 µg/mL (≈ 34 to 408 µM) |
| CCc1c(-c2ccc3occc3c2)[nH]c(=O)c(C(=O)O)c1O [Cpd 365, 6-(benzofuran-5-yl)-5-ethyl-4-hydroxy-2-oxo-1,2-dihydropyridine-3-carboxylic acid] | 3.5 to 12.5 µg/mL (≈ 11.7 to 41.8 µM) | 12.5 to 150 µg/mL (≈ 41.8 to 501 µM) | 12.5 to 150 µg/mL (≈ 41.8 to 501 µM) | 1 to 3.5 µg/mL (≈ 3.34 to 11.7 µM) | 3.5 to 12.5 µg/mL (≈ 11.7 to 41.8 µM) | < 1 µg/mL | 12.5 to 150 µg/mL (≈ 41.8 to 501 µM) | 3.5 to 12.5 µg/mL (≈ 11.7 to 41.8 µM) | 12.5 to 150 µg/mL (≈ 41.8 to 501 µM) | 12.5 to 150 µg/mL (≈ 41.8 to 501 µM) |
| CCc1cc(C(=O)O)c(=O)[nH]c1-c1ccc2sccc2c1 [Cpd 366, 6-(benzo[b]thiophen-5-yl)-5-ethyl-2-oxo-1,2-dihydropyridine-3-carboxylic acid] | 12.5 to 150 µg/mL (≈ 41.8 to 501 µM) | 12.5 to 150 µg/mL (≈ 41.8 to 501 µM) | 12.5 to 150 µg/mL (≈ 41.8 to 501 µM) | 12.5 to 150 µg/mL (≈ 41.8 to 501 µM) | 12.5 to 150 µg/mL (≈ 41.8 to 501 µM) | < 1 µg/mL | 3.5 to 12.5 µg/mL (≈ 11.7 to 41.8 µM) | 12.5 to 150 µg/mL (≈ 41.8 to 501 µM) | 12.5 to 150 µg/mL (≈ 41.8 to 501 µM) | 12.5 to 150 µg/mL (≈ 41.8 to 501 µM) |
| CCCCCCCCCNCc1cc2cc(-c3[nH]c(=O)c(C(=O)O)c(O)c3CC)ccc2n1C [Cpd 338, 5-ethyl-4-hydroxy-6-(1-methyl-2-((nonylamino)methyl)-1H-indol-5-yl)-2-oxo-1,2-dihydropyridine-3-carboxylic acid] | 12.5 to 150 µg/mL (≈ 26.7 to 321 µM) | 12.5 to 150 µg/mL (≈ 26.7 to 321 µM) | 12.5 to 150 µg/mL (≈ 26.7 to 321 µM) | 12.5 to 150 µg/mL (≈ 26.7 to 321 µM) | 3.5 to 12.5 µg/mL (≈ 7.48 to 26.7 µM) | 1 to 3.5 µg/mL (≈ 2.14 to 7.48 µM) | 12.5 to 150 µg/mL (≈ 26.7 to 321 µM) | 12.5 to 150 µg/mL (≈ 26.7 to 321 µM) | 12.5 to 150 µg/mL (≈ 26.7 to 321 µM) | 12.5 to 150 µg/mL (≈ 26.7 to 321 µM) |
| CCCCCNCc1cc2cc(-c3[nH]c(=O)c(C(=O)O)c(O)c3CC)ccc2n1C [Cpd 334, 5-ethyl-4-hydroxy-6-(1-methyl-2-((pentylamino)methyl)-1H-indol-5-yl)-2-oxo-1,2-dihydropyridine-3-carboxylic acid] | 12.5 to 150 µg/mL (≈ 30.4 to 365 µM) | 12.5 to 150 µg/mL (≈ 30.4 to 365 µM) | 12.5 to 150 µg/mL (≈ 30.4 to 365 µM) | 12.5 to 150 µg/mL (≈ 30.4 to 365 µM) | 12.5 to 150 µg/mL (≈ 30.4 to 365 µM) | < 1 µg/mL | < 1 µg/mL | 12.5 to 150 µg/mL (≈ 30.4 to 365 µM) | 1 to 3.5 µg/mL (≈ 2.43 to 8.51 µM) | 1 to 3.5 µg/mL (≈ 2.43 to 8.51 µM) |
| COCC(C)NCc1cc2cc(-c3[nH]c(=O)c(C(=O)O)c(O)c3C)ccc2n1C (stereo not drawn) [Cpd 346, 4-hydroxy-6-(2-((1-methoxypropan-2-ylamino)methyl)-1-methyl-1H-indol-5-yl)-5-methyl-2-oxo-1,2-dihydropyridine-3-carboxylic acid] | 3.5 to 12.5 µg/mL (≈ 8.76 to 31.3 µM) | 12.5 to 150 µg/mL (≈ 31.3 to 376 µM) | 12.5 to 150 µg/mL (≈ 31.3 to 376 µM) | 3.5 to 12.5 µg/mL (≈ 8.76 to 31.3 µM) | 12.5 to 150 µg/mL (≈ 31.3 to 376 µM) | < 1 µg/mL | 12.5 to 150 µg/mL (≈ 31.3 to 376 µM) | – | 3.5 to 12.5 µg/mL (≈ 8.76 to 31.3 µM) | 3.5 to 12.5 µg/mL (≈ 8.76 to 31.3 µM) |
| CNCCNCc1cc2cc(-c3[nH]c(=O)c(C(=O)O)c(O)c3C)ccc2n1C [Cpd 344, 4-hydroxy-5-methyl-6-(1-methyl-2-((2-(methylamino)ethylamino)methyl)-1H-indol-5-yl)-2-oxo-1,2-dihydropyridine-3-carboxylic acid] | 12.5 to 150 µg/mL (≈ 32.5 to 390 µM) | 12.5 to 150 µg/mL (≈ 32.5 to 390 µM) | 12.5 to 150 µg/mL (≈ 32.5 to 390 µM) | 12.5 to 150 µg/mL (≈ 32.5 to 390 µM) | 12.5 to 150 µg/mL (≈ 32.5 to 390 µM) | 12.5 to 150 µg/mL (≈ 32.5 to 390 µM) | 12.5 to 150 µg/mL (≈ 32.5 to 390 µM) | – | 12.5 to 150 µg/mL (≈ 32.5 to 390 µM) | 12.5 to 150 µg/mL (≈ 32.5 to 390 µM) |
